What all share (format): in vivo, human
The nature of data set [1]: Phase 1 drug-drug interaction study, plasma pharmacokinetics of dorzagliatin and sitagliptin. Conditions: for AUC(0-t) / Cmax: human, plasma, oral, T2DM subjects. The source says:
(§1) This phase I study accessed the pharmacokinetic interaction between dorzagliatin and sitagliptin in T2DM subjects. This study also evaluated the safety and tolerability of dorzagliatin with simultaneous administration of sitagliptin in T2DM subjects. Moreover, this study accessed the pharmacodynamic responses of glucose, GLP-1, glucagon, insulin, and C-peptide following dorzagliatin, sitagliptin, or simultaneous administration of dorzagliatin and sitagliptin in T2DM subjects.
(§2) Study drugs are each taken 60 (±5) min prior to meals.
Blood samples for the determination of dorzagliatin and sitagliptin concentrations and corresponding pharmacokinetic (PK) analysis were collected on Days 5, 10 and 15: pre-dose (within 30 min prior to dosing), and 0.25, 0.5, 1, 1.5, 2, 3, 4, 6, 8, 10, 12, 18, and 24 h post dose.
Dorzagliatin was provided as a film-coated tablets in 75 mg strength for oral administration 60 min prior to a meal. Sitagliptin was provided as JANUVIA® 100 mg tablets for oral administration 60 min prior to a meal. The total duration of participation in the study for each subject was about 59 days (up to 28-day screening period, 12-day run-in period, and 19-day in-clinic period).
The plasma concentration-time data for dorzagliatin and sitagliptin were analyzed using noncompartmental methods to calculate pharmacokinetic parameters.

A further data set has as its system glucose. Kind of data set: Oral glucose tolerance test, glucose response (serum). Conditions: for Glucose AUEC0-4h, Mean (SD) / Glucose CEav, Mean (SD) / Glucose CEmax, Mean (SD): baseline corrected, OGTT 75 g glucose 30 min after dose, T2DM subjects, sitagliptin 100 mg QD, dorzagliatin 75 mg BID; for Glucose AUEC0-4h, GMR (%) / Glucose CEav, GMR (%) / Glucose CEmax, GMR (%): printed in the monotherapy column, apparently combination vs that monotherapy.
Description: as §1, §2
(§3) Subjects consumed a 75-gram glucose solution 30 min following study drug dose administration on Days 5, 10 and 15 in lieu of breakfast. Pharmacodynamic (PD) responses were evaluated by measuring GLP-1 and glucagon levels in plasma, and glucose, insulin, and C-peptide in serum within 60 min prior to oral glucose intake and 0.5, 1, 1.5, 2, 2.5, 3 and 4 h after oral glucose intake.

The test system of a further data set is insulin. Kind of data set: Oral glucose tolerance test, insulin response (serum). Conditions: printed in the monotherapy column; apparently combination vs that monotherapy.
Description: as §1, §2, §3

The subject of another data set is C-peptide. The experiment in a line: Oral glucose tolerance test, C-peptide response (serum). Conditions: for C-peptide CEmax, Mean (SD): baseline corrected, OGTT 75 g glucose 30 min after dose, T2DM subjects, sitagliptin 100 mg QD, dorzagliatin 75 mg BID; for C-peptide AUEC0-4h, GMR (%) / C-peptide CEav, GMR (%) / C-peptide CEmax, GMR (%): printed in the monotherapy column, apparently combination vs that monotherapy.
Description: as §1, §2, §3

Results on 2 compounds are retold here after patent US11872221B2, “Treating untreated or treatment-resistant diabetes with glucokinase activator” (HUA Medicine (Shanghai) Ltd., priority 2020, dated 2024).

Read-outs that look alike come from different tables or passages of the source.

For `CC(C)C[C@@H](C(=O)Nc1ccn(C[C@@H](O)CO)n1)N1CC(Oc2ccccc2Cl)=CC1=O` [Dorzagliatin, (S)-2-(4-(2-chlorophenoxy)-2-oxo-2,5-dihydro-1H-pyrrol-1-yl)-N-(1-((R)-2,3-dihydroxypropyl)-1H-pyrazol-3-yl)-4-methylpentanamide], the “Percent ratio of geometric means (GMR) of dorzagliatin Cmax” value in data set [1] (dorzagliatin in combination with sitagliptin vs dorzagliatin alone, 90% CI: 87, 120) is given as 102%. Besides, in data set [1] (dorzagliatin in combination with sitagliptin vs dorzagliatin alone, 90% CI: 96, 105), the “Percent GMR of dorzagliatin AUC0-24h” value amounted to 100%. The AUC(0-t) in data set [1] (dorzagliatin 75 mg BID alone (Day 15), read-out: Least squares geometric mean AUC0-24h of plasma dorzagliatin) was 6.57 µg·h/mL. For the same compound, the Cmax (usually the peak of the concentration-time curve) in data set [1] (dorzagliatin 75 mg BID alone (Day 15), read-out: Least squares geometric mean Cmax of plasma dorzagliatin) was 0.814 µg/mL. Besides, the AUC(0-t) in data set [1] (dorzagliatin 75 mg BID in combination with sitagliptin 100 mg QD (Day 10), read-out: Least squares geometric mean AUC0-24h of plasma dorzagliatin) stood at 6.59 µg·h/mL. Further, the Cmax in data set [1] (dorzagliatin 75 mg BID in combination with sitagliptin 100 mg QD (Day 10), read-out: Least squares geometric mean Cmax of plasma dorzagliatin) came to 0.833 µg/mL. For the same compound, in the data set on glucose, the “Glucose AUEC0-4h, Mean (SD)” value was 339 (124) h · mg/dL; the “Glucose CEav, Mean (SD)” value is reported as 84.8 (31) mg/dL; the “Glucose CEmax, Mean (SD)” value was 163 (39) mg/dL; the “Glucose AUEC0-4h, GMR (%)” value worked out at 69%. Also, in the data set with glucose, the “Glucose CEav, GMR (%)” value was found to be 69% and the “Glucose CEmax, GMR (%)” value is reported as 83%. For the same compound, in the data set on insulin, the “Insulin AUEC0-4h, GMR (%)” value is given as 159%; the “Insulin CEav, GMR (%)” value was 159%; the “Insulin CEmax, GMR (%)” value was determined as 146%. Further, in the data set on C-peptide, the C-peptide CEmax, Mean (SD) amounted to 4.2 ng/mL; the “C-peptide AUEC0-4h, GMR (%)” value is given as 143%; the “C-peptide CEav, GMR (%)” value worked out at 143%; the “C-peptide CEmax, GMR (%)” value is recorded as 145%.

Take `N[C@@H](CC(=O)N1CCn2c(nnc2C(F)(F)F)C1)Cc1cc(F)c(F)cc1F` [Sitagliptin, (R)-3-amino-1-(3-(trifluoromethyl)-5,6-dihydro-[1,2,4]triazolo[4,3-a]pyrazin-7(8H)-yl)-4-(2,4,5-trifluorophenyl)butan-1-one]: in data set [1] (sitagliptin 100 mg QD alone (Day 5), read-out: Least squares geometric mean AUC0-24h of plasma sitagliptin), the AUC(0-t) was found to be 2.94 µg·h/mL. In addition, in data set [1] (sitagliptin 100 mg QD alone (Day 5), read-out: Least squares geometric mean Cmax of plasma sitagliptin), the Cmax is 0.41 µg/mL. In addition, the AUC(0-t) in data set [1] (sitagliptin 100 mg QD in combination with dorzagliatin 75 mg BID (Day 10), read-out: Least squares geometric mean AUC0-24h of plasma sitagliptin) was determined as 2.72 µg·h/mL. The Cmax in data set [1] (sitagliptin 100 mg QD in combination with dorzagliatin 75 mg BID (Day 10), read-out: Least squares geometric mean Cmax of plasma sitagliptin) was determined as 0.403 µg/mL. The “Percent GMR of sitagliptin Cmax” value in data set [1] (sitagliptin in combination with dorzagliatin vs sitagliptin alone, 90% CI: 84, 115) was found to be 98%. Moreover, the “Percent GMR of sitagliptin AUC0-24h” value in data set [1] (sitagliptin in combination with dorzagliatin vs sitagliptin alone, 90% CI: 86, 100) worked out at 93%. Further, in the data set on glucose, the “Glucose AUEC0-4h, Mean (SD)” value was 378 (88) h · mg/dL; the “Glucose CEav, Mean (SD)” value is 94.5 (22) mg/dL; the “Glucose CEmax, Mean (SD)” value is reported as 165 (35) mg/dL; the “Glucose AUEC0-4h, GMR (%)” value was found to be 65%. Also, in the data set with glucose, the “Glucose CEav, GMR (%)” value amounted to 65% and the “Glucose CEmax, GMR (%)” value is recorded as 87%. Moreover, in the data set with insulin, the “Insulin AUEC0-4h, GMR (%)” value amounted to 110%; the “Insulin CEav, GMR (%)” value was determined as 110%; the “Insulin CEmax, GMR (%)” value is 125%. For the same compound, in the data set on C-peptide, the C-peptide CEmax, Mean (SD) worked out at 5.1 ng/mL; the “C-peptide AUEC0-4h, GMR (%)” value worked out at 119%; the “C-peptide CEav, GMR (%)” value is listed as 119%; the “C-peptide CEmax, GMR (%)” value was found to be 125%.
